# Results: PubChem BioAssay AID651717 (Broad Institute, 2012)
# Tested on: mESC Bmi1-luciferase reporter, firefly/renilla ratio, 24 h
# Experiment: Bmi1-luciferase reporter activators in mESC, dose response, esBAF inhibitor project, mouse embryonic stem cells, cherry-pick (AID 651717);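 note: luciferase knocked into Bmi1 locus with EF-1a renilla as cell number control; rising ratio signals esBAF inhibition which derepresses Bmi1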
row,Structure (SMILES),AC40
1,COc1ccc(Cc2nnc(NC(=O)c3ccc(OC)cc3OC)s2)cc1,12.5 µM
2,Cc1noc(C)c1C(=O)Nc1nc2ccccc2s1,3.83 µM
3,Cc1noc(C)c1-c1csc(N2CCC(C(N)=O)CC2)n1,0.444 µM
4,Cc1ccc(C(=O)NCCc2nnc(SCC(=O)Nc3nc(-c4ccccc4)cs3)n2C)cc1,17.2 µM
5,CO[C@@H]1CN(C)C(=O)c2ccc(NC(=O)Nc3ccc4c(c3)OCO4)cc2OC[C@H](C)NC[C@H]1C,6.56 µM
6,COc1ccc2oc3cc(Cl)ccc3c(=O)c2c1,2.85 µM
7,CC(=O)Nc1ccc(NC(=O)c2cc(-c3ccc(F)cc3C)n[nH]2)cc1,7.08 µM
8,O=C(NC1CCCC1)c1cc(-c2ccccc2O)on1,1.65 µM
9,COc1ccc(C(=O)Nc2ccc(Cl)cn2)cc1Cl,2.38 µM
10,Cc1c(C(=O)NCc2cccnc2)sc2nc(-c3ccccc3)cn12,30.8 µM
11,C/C(CC(=O)Nc1ccc(OCc2ccccc2)cc1)=N\NC(=O)C(=O)Nc1ccc(C)c(Cl)c1,1.03 µM
12,CC1(C)CNC(=O)c2sc(NC(=O)c3ccccc3)nc2C1,4.76 µM
13,CCc1sc(C(=O)Nc2ccc3nc(C)sc3c2)cc1C,4.74 µM
14,O=C(NCCCc1ccccc1)c1ccccc1O,10.7 µM
15,Cc1cccc(OCc2nc3ccccc3c(=O)n2N)c1,7.24 µM
16,CCC1CCCCN1C(=O)c1ccc2nc(Cc3ccc(OC)cc3)oc2c1 (configuration not stated),3.04 µM
17,COc1cc(/C=N/NC(=O)c2nnn(-c3nonc3N)c2C)ccc1OCc1ccc(Cl)cc1,19.7 µM
18,Clc1ccc(-c2nnc(-c3cccc4ccccc34)o2)cc1,1.79 µM
19,Cc1cc2ncn(C(=O)N3CCC(C)CC3)c2cc1C,7.84 µM
20,Cc1ccc(S(=O)(=O)N(C)CC(=O)Nc2cc(C)ccn2)cc1,9.84 µM
21,CC(C)Cc1cc(C(=O)Nc2ccc(Br)cc2)no1,2.96 µM

row,Structure (SMILES),AC40
1,O=C1c2ccccc2CN1c1ccccc1,3.89 µM
2,CC(=O)Nc1ccc(CNc2nc3cc(-c4ccsc4)sc3c(=O)n2C)cc1,6.16 µM
3,Cc1ccc(NC(=O)CN2C(=O)N/C(=C/c3ccccc3OCc3cccc(C(=O)O)c3)C2=O)cc1,2.65 µM
4,Cc1ccc(NC(=O)C(=O)Nc2ccc(C)cn2)nc1,0.497 µM
5,O=C(NC1CCCCC1)c1cc(-c2cccc(Cl)c2)on1,6.04 µM
6,COc1ccccc1N1C(=O)S/C(=C\c2ccc(C)s2)C1=O,1.95 µM
7,O=C(Nc1ccc(SC(F)F)cc1)c1ccc2c(=O)n3c(nc2c1)CCC3,2.02 µM
8,CC(=O)c1c(C)[nH]c(C(=O)OCc2ccc(Br)cc2)c1C,6.96 µM
9,CCCCN(C(=O)CSc1nnc(Nc2ccc(C)c(C)c2)s1)c1c(N)n(Cc2ccccc2)c(=O)[nH]c1=O,12.4 µM
10,COc1cc2[nH]c(C(=O)N3CCc4ccccc43)cc2c(OC)c1OC,2.77 µM
11,Cc1cc(C)c2nc(N3CCCC(C(=O)NC4CCCC4)C3)sc2c1 (configuration not stated),9.66 µM
12,COc1ccc(OCc2cc(C(=O)N3C[C@H]4CC[C@H]3C4)no2)c(Cl)c1,9.24 µM
13,CC(C)c1ccc(CNc2ncccn2)cc1,2.82 µM
14,CCC(C)c1ccc(NC(=O)C2CC2)cc1 (configuration not stated),5.85 µM
15,COc1ccccc1/C=C/C=N/n1c(-c2ccccn2)n[nH]c1=S,9.01 µM
16,CSc1ccc(CNc2ccc(C)c(C)c2)cc1,2.83 µM
17,Cn1cccc1C(=O)NC1CCCCCC1,3.74 µM
18,Cc1cccc(-c2noc(Cc3ccc(Cl)cc3)n2)c1,5.96 µM
19,CCN(CC)C(=O)c1nc(-c2cccc3ccccc23)no1,13.1 µM
20,CCN(C(=O)c1cccs1)c1nnc(-c2ccncc2)s1,1.05 µM
21,Cc1ccc(NC(=O)C2CCN(S(=O)(=O)c3ccc4ccccc4c3)CC2)nc1,6.53 µM

row,Structure (SMILES),AC40
1,COc1cccc(NC(=O)c2sc3nc4n(c(=O)c3c2C)CCC4)c1,2.73 µM
2,COc1ccc(/C=N/Nc2nc(C)nc(N)n2)cc1,15.5 µM
3,COc1ccccc1CNC(=O)C[C@H]1CC[C@H]2[C@@H](COC[C@@H](O)CN2C(=O)Nc2ccc(Cl)cc2)O1,1.05 µM
4,CC(=O)N1N=C(c2ccc(Br)cc2)CC1c1ccc(Br)cc1 (configuration not stated),14.5 µM
5,O=C(O)c1cc(-c2ccc(-c3c(-c4ccc5c(c4)OCO5)noc3-c3ccsc3)cc2)nc2ccccc12,6.89 µM
6,O=C(CCc1nnc(C2(c3ccc(Cl)cc3)CCC2)o1)N1CCCC1,3.99 µM
7,COc1ccc(CC(=O)Nc2ccc(-c3cn4ccc(C)cc4n3)cc2)cc1,18.8 µM
8,O=C(Nc1ccc(Cl)cc1Cl)c1csc(-c2cccnc2)n1,6.82 µM
9,COc1cc(SC)ccc1C(=O)NCC1CCCCC1,3.03 µM
10,CCCCSc1nnc(-c2ccc(OC)cc2)n1C,9.08 µM
11,Cc1csc(NC(=O)Cc2ccc(F)cc2)n1,7.58 µM
12,CCCC(=O)N1CCN(c2nc3ccc(Br)cc3s2)CC1,1.7 µM
13,Clc1ccccc1C=NNc1ccccn1,2.27 µM
14,Nc1cccc(N=[N+]([O-])c2cccc(N)c2)c1,2.11 µM
15,CC(C)N1CC2(CC(c3ccccc3F)=NO2)CN1C(=O)c1ccc(C(C)(C)C)cc1 (configuration not stated),4.08 µM
16,CCSc1nnc(Nc2ccccc2)s1,11.1 µM
17,O=C(c1ccncc1)N1N=C(c2ccc(Cl)cc2)CC1c1ccccc1O (configuration not stated),2.04 µM
18,N/C(=N\OC(=O)Cc1cccs1)c1ccc(Cl)cc1,18.1 µM
19,CCCCN1C(=S)NC[C@@H]1Cc1cccc2ccccc12,17.3 µM
20,COC(=O)CN(C)C(=O)c1ccc2nc(Cc3cccc(Cl)c3)oc2c1,2.4 µM
